For data set [1] the following is noted: in vivo; cited from earlier work.
Data set [2] has as its target T1, human OAT3 (Homo sapiens, UniProt Q8TCC7).
T1 construct: expressed in transfected cells; host or cells: MDCKII (protocol UPT-MDCKII-OAT3-E3S; control: parental MDCKII)
T1 sequence (Q8TCC7 1-542): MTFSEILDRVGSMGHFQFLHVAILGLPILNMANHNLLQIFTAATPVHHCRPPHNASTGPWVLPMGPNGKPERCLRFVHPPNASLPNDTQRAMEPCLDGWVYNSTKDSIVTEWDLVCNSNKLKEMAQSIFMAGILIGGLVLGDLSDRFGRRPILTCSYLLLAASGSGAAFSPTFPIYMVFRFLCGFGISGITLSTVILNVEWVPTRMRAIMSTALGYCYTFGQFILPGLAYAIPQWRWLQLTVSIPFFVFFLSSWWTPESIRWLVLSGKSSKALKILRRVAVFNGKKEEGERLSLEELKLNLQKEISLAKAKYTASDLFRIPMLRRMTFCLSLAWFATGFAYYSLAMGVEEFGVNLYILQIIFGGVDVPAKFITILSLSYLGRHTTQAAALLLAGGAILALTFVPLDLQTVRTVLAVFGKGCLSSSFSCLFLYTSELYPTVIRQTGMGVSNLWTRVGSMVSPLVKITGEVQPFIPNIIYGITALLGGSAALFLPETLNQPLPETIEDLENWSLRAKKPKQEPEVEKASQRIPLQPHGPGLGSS
The data set is described as follows: Uptake transporter substrate feasibility assay, OAT3. Format: in vitro ADME. More on the design: key to Substrate: NIO: No interaction observed. The method, then: (§1) Uptake experiments were performed using CHO, MDCKII, or HEK293 cells stably expressing the respective uptake transporters.
(§2) Cells were cultured at 37±1° C. in an atmosphere of 95:5 air:CO2 as described in Table 4 and were plated onto standard 24-well tissue culture plates at 2×10^5 cells/well. The uptake of the TA was determined using cells overexpressing the respective uptake transporter and control cells, at two incubation time points (2 and 20 min) and at two concentrations (1 and 10 μM) of TA to determine whether or not the TA was actively taken up into the cells.
(§3) Before the experiment, the medium was removed and the cells were washed twice with 300 μl of HK buffer (pH 7.4) (prepared from Sigma chemicals). Cellular uptake of TA into the cells was measured by adding 300 μl of HK buffer containing TA and incubating them at 37±1° C. Reactions were quenched by removing the HK buffer containing the TA and the cells were washed twice with 300 μl of HK buffer. Cells were lysed by adding 300 μl of MeOH:H2O (2:1) and incubated for 20 minutes at 4±1° C. The amount of TA in the cell lysate was determined by LC-MS/MS. The amount of protein in each well was quantified using the BCA kit for protein determination (Sigma-Aldrich, St Louis, Mo., USA). Uptake of the probe substrate in control cells provided background activity values for all data points. Incubation without reference inhibitor (solvent only) provided 100% activity values. A reference inhibitor served as positive control for inhibition.
(§4) The fold accumulation value was defined as the ratio of uptake of TA or probe substrate into transfected and control cells:
(§5) [formula] UPTTRP: accumulated amount of TA or probe substrate in transfected cells normalized by protein content [pmol/mg protein] UPTCTL: accumulated amount of TA or probe substrate in control cells normalized by protein content [pmol/mg protein]
(§6) If the fold accumulation is >2 and can be inhibited by a known inhibitor of the transporter, the TA can be considered to be a substrate of the respective transporter.

Data set [3] concerns the target T2, human OAT1 (Homo sapiens, UniProt Q4U2R8).
T2 construct: expressed in transfected cells; host or cells: CHO (protocol UPT-CHO-OAT1-Tenofovir; control: parental CHO-K1)
T2 sequence (Q4U2R8 1-563): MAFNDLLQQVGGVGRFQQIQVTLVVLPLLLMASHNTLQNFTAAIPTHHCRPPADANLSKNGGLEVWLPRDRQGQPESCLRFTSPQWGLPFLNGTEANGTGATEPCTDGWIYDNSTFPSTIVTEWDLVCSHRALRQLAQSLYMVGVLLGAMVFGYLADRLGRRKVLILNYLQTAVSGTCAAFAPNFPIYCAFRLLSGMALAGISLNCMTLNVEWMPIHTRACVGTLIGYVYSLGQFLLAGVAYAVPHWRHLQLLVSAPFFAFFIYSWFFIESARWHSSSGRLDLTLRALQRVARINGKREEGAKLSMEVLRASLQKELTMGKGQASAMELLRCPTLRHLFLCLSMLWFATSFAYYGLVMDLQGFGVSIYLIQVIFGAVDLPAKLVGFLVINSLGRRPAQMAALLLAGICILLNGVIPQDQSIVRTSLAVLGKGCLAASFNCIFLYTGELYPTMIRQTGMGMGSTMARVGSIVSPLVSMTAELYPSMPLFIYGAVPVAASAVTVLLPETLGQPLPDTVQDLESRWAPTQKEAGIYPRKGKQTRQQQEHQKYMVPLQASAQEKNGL
The data set is described as follows: Uptake transporter substrate feasibility assay, OAT1. Format: in vitro ADME. Details: key to Substrate: NIO: No interaction observed. How it is done:
as §1, §2, §3, §4, §5, §6

For the molecule `[O-][n+]1cccc(C(Cl)=NOCC(O)CN2CCCCC2)c1` (stereo not drawn) [Arimoclomol, N-[2-hydroxy-3-(1-piperidinyl)-propoxy]-pyridine-1-oxide-3-carboximidoyl chloride], the plasma half-life in data set [1] was 2 to 4 h. In addition, the “Substrate of the transporter (in words)” value in data set [2] and in data set [3] was “not a substrate” throughout. Further, the Fold accumulation in data set [2] (1 μM, 2 min) is listed as 0.86; in data set [2] (1 μM, 20 min), 0.86; in data set [2] (10 μM, 2 min) it was 0.85; in data set [2] (10 μM, 20 min) it was 0.82; in data set [2] (1 and 10 μM, 2 and 20 min) it was under 2; in data set [3] (1 μM, 2 min), 0.77. The Fold accumulation was 0.75 in data set [3] (1 μM, 20 min); 0.56 in data set [3] (10 μM, 2 min); 0.73 in data set [3] (10 μM, 20 min); under 2 in data set [3] (1 and 10 μM, 2 and 20 min). Moreover, the Substrate entry in data set [2] (Table 2) and in data set [3] (Table 2) was “NIO” each time.

Values taken from patent US11229633B2, “Arimoclomol formulation” (Orphazyme A/S, priority 2014, dated 2022).
